Results as given in patent US11472843B2, “Malacidins and methods of use” (The Rockefeller University, priority 2017, dated 2022).

System: MRSA USA300
Assay: Selection for malacidin-resistant mutants
Type: cell-based, Staphylococcus aureus
Conditions: 20 days of exposure to 0.5×MIC, 15 mM calcium
Method: To select for resistant mutants, a single MRSA USA300 colony from a freshly struck plate was inoculated into LB media and grown overnight at 37° C. The saturated overnight culture was diluted 100-fold, supplemented with a sub-lethal dose (0.5×MIC) of malacidin A, vancomycin, daptomycin or rifamycin and 15 mM calcium. Two-hundred-microlitre aliquots were then distributed into microtiter plate wells. The next day, 3 μl of culture from each well was used to inoculate 200 μl of calcium-supplemented media (15 mM calcium) with fresh antibiotic at 0.5× and 4×MIC. This process was repeated for 20 days. […] This was repeated over the course of the experiment to assess fold change in MIC at day 0 to day 20.

malacidin A
Detection of resistant S. aureus after repeated exposure: not detected
